In patent publication US20130310256A1, “HERBICIDAL COMPOSITIONS COMPRISING 4-AMINO-3-CHLORO-5-FLUORO-6-(4-CHLORO-2-FLUORO-3-METHOXYPHENYL) PYRIDINE-2-CARBOXYLIC ACID OR A DERIVATIVE THEREOF AND VLCFA AND LIPID SYNTHESIS INHIBITING HERBICIDES” (DOW AGROSCIENCES LLC, priority 2008, published 2013):
“And” between values parts separate entries of the source, which are not always exact repeats. Equal values may be shown once.

How the values were obtained:
[1] = tested on: LEFCH; assay: Example I: postemergence foliar-applied weed control, greenhouse; format: in vivo, Leptochloa chinensis (L.) Nees (Chinese sprangletop); conditions: for Visual Weed Control (%) - 21 DAA LEFCH Obs / Visual Weed Control (%) - 22 DAA LEFCH Obs / Visual Weed Control (%) - 19 DAA LEFCH Obs: foliar
In short: (§1)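 Plants grown in loam/sandy loam–calcareous grit soil (80:20) in greenhouse, 14 hr photoperiod, about 29° C. day/26° C. night, treated postemergence at first to fourth true leaf stage. Foliar spray at 187 L/ha with 1.25% (v/v) crop oil concentrate; Compound A dosed on acid equivalent basis, partners on active ingredient basis.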

[2] = tested on: CYPIR; assay: as above; format: in vivo, Cyperus iria L. (rice flatsedge)
In short: as §1

[3] = tested on: BRAPP; assay: Example I: postemergence foliar-applied weed control, direct seeded rice weeds, greenhouse; format: in vivo; conditions: for Visual Weed Control Obs: 20 DAA; for Visual Weed Control (%) - 22 DAA BRAPP Obs: foliar
In short: as §1

[4] = tested on: IPOHE; assay: Example I: postemergence foliar-applied weed control, greenhouse; format: in vivo, Ipomoea hederacea Jacq. (ivyleaf morningglory); conditions: for Visual Weed Control Obs: 20 DAA; for Visual Weed Control (%) - 21 DAA IPOHE Obs: foliar
Source text: Seeds or nutlets of the desired test plant species were planted in a soil matrix prepared by mixing a loam or sandy loam soil (e.g., 28.6 percent silt, 18.8 percent clay, and 52.6 percent sand, with a pH of about 5.8 and an organic matter content of about 1.8 percent) and calcareous grit in an 80 to 20 ratio. The soil matrix was contained in plastic pots with a volume of 1 quart and a surface area of 83.6 square centimeters (cm^2). When required to ensure good germination and healthy plants, a fungicide treatment and/or other chemical or physical treatment was applied. The plants were grown for 8-22 days in a greenhouse with an approximate 14 hr photoperiod which was maintained at about 29° C. during the day and 26° C. during the night. Nutrients (Peters Excel® 15-5-15 5-Ca 2-Mg and iron chelate) were applied in the irrigation solution as needed and water was added on a regular basis. Supplemental lighting was provided with overhead metal halide 1000-Watt lamps as necessary. The plants were employed for testing when they reached the first through fourth true leaf stage.
Treatments consisted of the acid or esters of 4-amino-3-chloro-5-fluoro-6-(4-chloro-2-fluoro-3-methoxy-phenyl)pyridine-2-carboxylic acid (Compound A), each formulated as an SC (suspension concentrate), and various herbicidal components alone and in combination. Forms of compound A were applied on an acid equivalent basis.
Other herbicidal components were applied on an active ingredient basis and included very long chain fatty acid (VLCFA) synthesis-inhibiting and fatty acid/lipid synthesis-inhibiting herbicides acetochlor (technical grade material), acetochlor+dichlormid formulated as Topnotch®, pretilachlor (technical grade material), butachlor formulated as Butachlor EC, fentrazamide formulated as Fentrazamide EC, thiobencarb formulated as Bolero® 8EC, cafenstrole formulated as Himeadow® WP or Lapost® Flowable, benfuresate formulated as Full Shot®, dimethenamid-P formulated as Outlook®, indanofan (technical grade material), flufenacet formulated as Define® DF, mefenacet (technical grade material), S-metolachlor formulated as Dual® II Magnum, pethoxamid formulated as Successor® 600, and pyroxasulfone (technical grade material).
Treatment requirements were calculated based upon the rates being tested, the concentration of active ingredient or acid equivalent in the formulation, and a 12 mL application volume at a rate of 187 L/ha.
For treatments comprised of formulated compounds, measured amounts of compounds were placed individually in 25 mL glass vials and diluted in a volume of 1.25% (v/v) Agri-Dex® crop oil concentrated to obtain 12× stock solutions. […] Application solutions were prepared by adding an appropriate amount of each stock solution (e.g., 1 mL) and diluted to the appropriate final concentrations with the addition of 10 mL of an aqueous mixture of 1.25% (v/v) crop oil concentrate so that the final spray solutions contained 1.25+/−0.05% (v/v) crop oil concentrate.
For treatments comprised of technical compounds, weighed amounts can be placed individually in 25 mL glass vials and dissolved in a volume of 97:3 v/v acetone/DMSO to obtain 12× stock solutions. […] Application solutions can be prepared by adding an appropriate amount of each stock solution (e.g., 1 mL) and diluted to the appropriate final concentrations with the addition of 10 mL of an aqueous mixture of 1.5% (v/v) crop oil concentrate so that the final spray solutions contain 1.25% (v/v) crop oil concentrate. When technical materials are used, the concentrated stock solutions can be added to the spray solutions so that the final acetone and DMSO concentrations of the application solutions are […], respectively. […]

With `CCS(=O)(=O)Oc1ccc2c(c1)C(C)(C)CO2` [Benfuresate, 2,3-dihydro-3,3-dimethyl-5-benzofuranyl ethanesulfonate] the “Visual Weed Control (%) - 21 DAA LEFCH Obs” value ([1]; 75 gai/ha) was 0%, the “Visual Weed Control (%) - 21 DAA LEFCH Obs” value ([1]; 150 gai/ha) was 10% and the “Visual Weed Control (%) - 21 DAA LEFCH Obs” value ([1]; 300 gai/ha) was 10%. The “Visual Weed Control (%) - 22 DAA LEFCH Obs” value ([1]; 300 gai/ha) was 10%, the “Visual Weed Control (%) - 22 DAA CYPIR Obs” value ([2]; 150 gai/ha, foliar) was 0% and the “Visual Weed Control (%) - 22 DAA CYPIR Obs” value ([2]; 300 gai/ha, foliar) was 10%.
In the case of `CCN(CC)C(=O)n1cnc(S(=O)(=O)c2c(C)cc(C)cc2C)n1` [Cafenstrole, N,N-diethyl-3-[(2,4,6-trimethylphenyl)sulfonyl]-1H-1,2,4-triazole-1-carboxamide], the “Visual Weed Control Obs” value ([3]; 26.25 gai/ha Himeadow WP) is reported as 0%, the “Visual Weed Control Obs” value ([3]; 52.5 gai/ha Himeadow WP) is reported as 0% and the “Visual Weed Control Obs” value ([3]; 105 gai/ha Himeadow WP) is reported as 0%. The “Visual Weed Control Obs” value ([1]; 20 DAA, 26.25 gai/ha Himeadow WP) was 0%, the “Visual Weed Control Obs” value ([1]; 20 DAA, 52.5 gai/ha Himeadow WP) was 0% and the “Visual Weed Control Obs” value ([1]; 20 DAA, 105 gai/ha Himeadow WP) was 0%. For the same molecule, the “Visual Weed Control Obs” value ([1]; 21 DAA, 210 gai/ha Lapost Flowable) was 23%, the “Visual Weed Control Obs” value ([2]; 21 DAA, 26.25 gai/ha Lapost Flowable) was 0% and the “Visual Weed Control Obs” value ([2]; 21 DAA, 52.5 gai/ha Lapost Flowable) was 0%. For the same molecule, the “Visual Weed Control Obs” value ([2]; 21 DAA, 105 gai/ha Lapost Flowable) was 0%, the “Visual Weed Control Obs” value ([4]; 26.25 gai/ha Himeadow WP) was 0% and the “Visual Weed Control Obs” value ([4]; 105 gai/ha Himeadow WP) was 30%. For the same molecule, the “Visual Weed Control (%) - 21 DAA IPOHE Obs” value ([4]; 26.25 gai/ha) was 0% and the “Visual Weed Control (%) - 21 DAA IPOHE Obs” value ([4]; 210 gai/ha, 2nd IPOHE sub-table) was 10%.
In the case of `COc1c(Cl)ccc(-c2nc(C(=O)O)c(Cl)c(N)c2F)c1F` [Compound A Acid, 4-amino-3-chloro-6-(4-chloro-2-fluoro-3-methoxyphenyl)-5-fluoropyridine-2-carboxylic acid], the “Visual Weed Control Obs” value ([3]; 4.38 gae/ha) is reported as 50% and 60% and 75%, the “Visual Weed Control Obs” value ([3]; 8.75 gae/ha) is reported as 70% and 80% and the “Visual Weed Control (%) - 22 DAA LEFCH Obs” value ([1]; 10.6 gae/ha) is reported as 10%. For the same molecule, the “Visual Weed Control Obs” value ([1]; 20 DAA, 17.5 gae/ha) was 30% and 50%, the “Visual Weed Control Obs” value ([1]; 21 DAA, 17.5 gae/ha) was 20% and the “Visual Weed Control Obs” value ([1]; 21 DAA, 35 gae/ha) was 45%. The “Visual Weed Control (%) - 22 DAA LEFCH Obs” value ([1]; 21.2 gae/ha) was 10%, the “Visual Weed Control (%) - 22 DAA CYPIR Obs” value ([2]; 5.3 gae/ha, foliar) was 60% and the “Visual Weed Control Obs” value ([2]; 20 DAA, 4.38 gae/ha) was 40%. The “Visual Weed Control Obs” value ([2]; 21 DAA, 4.38 gae/ha) was 70%, the “Visual Weed Control Obs” value ([4]; 4.38 gae/ha) was 0% and the “Visual Weed Control Obs” value ([4]; 8.75 gae/ha) was 20%. For the same molecule, the “Visual Weed Control Obs” value ([4]; 17.5 gae/ha) was 40%.
For `COc1c(Cl)ccc(-c2nc(C(=O)OCc3ccccc3)c(Cl)c(N)c2F)c1F` [Compound A Benzyl Ester, benzyl ester of 4-amino-3-chloro-5-fluoro-6-(4-chloro-2-fluoro-3-methoxy-phenyl)pyridine-2-carboxylic acid], the “Visual Weed Control (%) - 22 DAA BRAPP Obs” value ([3]; 8 gae/ha) was 60% and 65%, the “Visual Weed Control (%) - 22 DAA BRAPP Obs” value ([3]; 16 gae/ha) was 60% and 80% and the “Visual Weed Control Obs” value ([3]; 4.38 gae/ha) was 60%. The “Visual Weed Control Obs” value ([3]; 8.75 gae/ha) was 65%, the “Visual Weed Control (%) - 22 DAA BRAPP Obs” value ([3]; 32 gae/ha) was 90% and 85% and the “Visual Weed Control (%) - 21 DAA LEFCH Obs” value ([1]; 5.3 gae/ha) was 0%. For the same molecule, the “Visual Weed Control (%) - 21 DAA LEFCH Obs” value ([1]; 8 gae/ha) was 20%, the “Visual Weed Control (%) - 22 DAA LEFCH Obs” value ([1]; 8 gae/ha) was 35% and the “Visual Weed Control (%) - 21 DAA LEFCH Obs” value ([1]; 10.6 gae/ha) was 20%. For the same molecule, the “Visual Weed Control (%) - 19 DAA LEFCH Obs” value ([1]; 16 gae/ha) was 45%, the “Visual Weed Control (%) - 22 DAA LEFCH Obs” value ([1]; 16 gae/ha) was 40% and the “Visual Weed Control Obs” value ([1]; 20 DAA, 17.5 gae/ha) was 50% and 25%. For the same molecule, the “Visual Weed Control (%) - 21 DAA LEFCH Obs” value ([1]; 21.2 gae/ha) was 35%, the “Visual Weed Control (%) - 19 DAA LEFCH Obs” value ([1]; 32 gae/ha) was 50% and the “Visual Weed Control (%) - 21 DAA CYPIR Obs” value ([2]; 8 gae/ha, foliar) was 30%. For the same molecule, the “Visual Weed Control (%) - 22 DAA CYPIR Obs” value ([2]; 16 gae/ha, foliar) was 60%, the “Visual Weed Control Obs” value ([2]; 20 DAA, 4.38 gae/ha) was 80% and the “Visual Weed Control (%) - 21 DAA IPOHE Obs” value ([4]; 4.38 gae/ha) was 0%. The “Visual Weed Control (%) - 21 DAA IPOHE Obs” value ([4]; 8.75 gae/ha) was 10%, the “Visual Weed Control (%) - 21 DAA IPOHE Obs” value ([4]; 17.5 gae/ha) was 30% and the “Visual Weed Control (%) - 21 DAA IPOHE Obs” value ([4]; 17.5 gae/ha, 2nd IPOHE sub-table) was 10%. The “Visual Weed Control Obs” value ([4]; 4.38 gae/ha) was 10%, the “Visual Weed Control Obs” value ([4]; 8.75 gae/ha) was 15% and the “Visual Weed Control Obs” value ([4]; 17.5 gae/ha) was 25%.
With `CCCOCCN(C(=O)CCl)c1c(CC)cccc1CC` [Pretilachlor, 2-chloro-N-(2,6-diethylphenyl)-N-(2-propoxyethyl)acetamide] the “Visual Weed Control Obs” value ([3]; 37.5 gai/ha) was 0%, the “Visual Weed Control Obs” value ([3]; 75 gai/ha) was 0% and the “Visual Weed Control Obs” value ([3]; 150 gai/ha) was 0%. The “Visual Weed Control Obs” value ([2]; 20 DAA, 37.5 gai/ha) was 0%, the “Visual Weed Control Obs” value ([2]; 20 DAA, 75 gai/ha) was 0% and the “Visual Weed Control Obs” value ([2]; 20 DAA, 150 gai/ha) was 0%.
